# Activity calls are given as the source filed them.
# Assays:
# Assay type in all cases: functional
# [1] = Antioxidant activity assessed as metal chelating activity by measuring inhibition of ferrozine-Fe2+ complex formation at 25 to 100 ug/ml
# [2] = Antioxidant activity assessed as ferric ion reducing activity at 75 ug/ml by FRAP assay
# Aspergillus flavus [3] = assay: Antimicrobial activity against Aspergillus flavus MTCC 1973 at 500 ug/ml after 72 hrs by cup plate method; details: MTCC 1973, 72 h, read-out: IZ
# Aspergillus flavus [4] = assay: Antimicrobial activity against Aspergillus flavus MTCC 1973 at 750 ug/ml after 72 hrs by cup plate method; details: MTCC 1973, 72 h, read-out: IZ
# Aspergillus flavus [5] = assay: Antimicrobial activity against Aspergillus flavus MTCC 1973 at 1000 ug/ml after 72 hrs by cup plate method; details: MTCC 1973, 72 h, read-out: IZ
# Aspergillus terreus [6] = assay: Antimicrobial activity against Aspergillus terreus MTCC 1782 at 500 ug/ml after 72 hrs by cup plate method; details: MTCC 1782, 72 h, read-out: IZ
# Aspergillus terreus [7] = assay: Antimicrobial activity against Aspergillus terreus MTCC 1782 at 750 ug/ml after 72 hrs by cup plate method; details: MTCC 1782, 72 h, read-out: IZ
# Aspergillus terreus [8] = assay: Antimicrobial activity against Aspergillus terreus MTCC 1782 at 1000 ug/ml after 72 hrs by cup plate method; details: MTCC 1782, 72 h, read-out: IZ
# Aspergillus oryzae [9] = assay: Antimicrobial activity against Aspergillus oryzae MTCC 3567 at 500 ug/ml after 72 hrs by cup plate method; details: MTCC 3567, 72 h, read-out: IZ
# Aspergillus oryzae [10] = assay: Antimicrobial activity against Aspergillus oryzae MTCC 3567 at 750 ug/ml after 72 hrs by cup plate method; details: MTCC 3567, 72 h, read-out: IZ
# Aspergillus oryzae [11] = assay: Antimicrobial activity against Aspergillus oryzae MTCC 3567 at 1000 ug/ml after 72 hrs by cup plate method; details: MTCC 3567, 72 h, read-out: IZ
# Aspergillus niger [12] = assay: Antimicrobial activity against Aspergillus niger MTCC 281 at 500 ug/ml after 72 hrs by cup plate method; details: MTCC 281, 72 h, read-out: IZ
# Aspergillus niger [13] = assay: Antimicrobial activity against Aspergillus niger MTCC 281 at 750 ug/ml after 72 hrs by cup plate method; details: MTCC 281, 72 h, read-out: IZ
# Aspergillus niger [14] = assay: Antimicrobial activity against Aspergillus niger MTCC 281 at 1000 ug/ml after 72 hrs by cup plate method; details: MTCC 281, 72 h, read-out: IZ
# Pseudomonas aeruginosa [15] = assay: Antimicrobial activity against Pseudomonas aeruginosa MTCC 1688 at 500 ug/ml after 24 hrs by cup plate method; details: MTCC 1688, 24 h, read-out: IZ
# Pseudomonas aeruginosa [16] = assay: Antimicrobial activity against Pseudomonas aeruginosa MTCC 1688 at 750 ug/ml after 24 hrs by cup plate method; details: MTCC 1688, 24 h, read-out: IZ
# Pseudomonas aeruginosa [17] = assay: Antimicrobial activity against Pseudomonas aeruginosa MTCC 1688 at 1000 ug/ml after 24 hrs by cup plate method; details: MTCC 1688, 24 h, read-out: IZ
# Klebsiella pneumoniae [18] = assay: Antimicrobial activity against Klebsiella pneumoniae NCTC 13368 at 500 ug/ml after 24 hrs by cup plate method; details: NCTC 13368, 24 h, read-out: IZ
# Klebsiella pneumoniae [19] = assay: Antimicrobial activity against Klebsiella pneumoniae NCTC 13368 at 750 ug/ml after 24 hrs by cup plate method; details: NCTC 13368, 24 h, read-out: IZ
# Klebsiella pneumoniae [20] = assay: Antimicrobial activity against Klebsiella pneumoniae NCTC 13368 at 1000 ug/ml after 24 hrs by cup plate method; details: NCTC 13368, 24 h, read-out: IZ
# Staphylococcus aureus [21] = assay: Antimicrobial activity against Staphylococcus aureus ATCC 29513 at 500 ug/ml after 24 hrs by cup plate method; details: ATCC 29513, 24 h, read-out: IZ
# Staphylococcus aureus [22] = assay: Antimicrobial activity against Staphylococcus aureus ATCC 29513 at 750 ug/ml after 24 hrs by cup plate method; details: ATCC 29513, 24 h, read-out: IZ
# Staphylococcus aureus [23] = assay: Antimicrobial activity against Staphylococcus aureus ATCC 29513 at 1000 ug/ml after 24 hrs by cup plate method; details: ATCC 29513, 24 h, read-out: IZ
# Escherichia coli [24] = assay: Antimicrobial activity against Escherichia coli MTCC 723 at 500 ug/ml after 24 hrs by cup plate method; details: MTCC 723, 24 h, read-out: IZ
# Escherichia coli [25] = assay: Antimicrobial activity against Escherichia coli MTCC 723 at 750 ug/ml after 24 hrs by cup plate method; details: MTCC 723, 24 h, read-out: IZ
# Escherichia coli [26] = assay: Antimicrobial activity against Escherichia coli MTCC 723 at 1000 ug/ml after 24 hrs by cup plate method; details: MTCC 723, 24 h, read-out: IZ
# [27] = Antioxidant activity assessed as ferric ion reducing activity at 100 ug/ml by FRAP assay
SMILES,Activity [1],zone of inhibition at 500 µg/mL (Aspergillus flavus [3]),zone of inhibition at 750 µg/mL (Aspergillus flavus [4]),zone of inhibition at 1000 µg/mL (Aspergillus flavus [5]),zone of inhibition at 500 µg/mL (Aspergillus terreus [6]),zone of inhibition at 750 µg/mL (Aspergillus terreus [7]),zone of inhibition at 1000 µg/mL (Aspergillus terreus [8]),zone of inhibition at 500 µg/mL (Aspergillus oryzae [9]),zone of inhibition at 750 µg/mL (Aspergillus oryzae [10]),zone of inhibition at 1000 µg/mL (Aspergillus oryzae [11]),zone of inhibition at 500 µg/mL (Aspergillus niger [12]),zone of inhibition at 750 µg/mL (Aspergillus niger [13]),zone of inhibition at 1000 µg/mL (Aspergillus niger [14]),zone of inhibition at 500 µg/mL (Pseudomonas aeruginosa [15]),zone of inhibition at 750 µg/mL (Pseudomonas aeruginosa [16]),zone of inhibition at 1000 µg/mL (Pseudomonas aeruginosa [17]),zone of inhibition at 500 µg/mL (Klebsiella pneumoniae [18]),zone of inhibition at 750 µg/mL (Klebsiella pneumoniae [19]),zone of inhibition at 1000 µg/mL (Klebsiella pneumoniae [20]),zone of inhibition at 500 µg/mL (Staphylococcus aureus [21]),also measured
Nc1n[nH]c2c1C(c1c(-c3ccccc3)[nH]c3ccccc13)C=C(c1ccc(Cl)cc1)O2 (configuration not stated),Active,9 mm,9 mm,9 mm,8 mm,6 mm,11 mm,12 mm,12 mm,13 mm,7 mm,5 mm,3 mm,10 mm,10 mm,10 mm,5 mm,5 mm,5 mm,5 mm,Activity [2]: Active; zone of inhibition at 750 µg/mL (Staphylococcus aureus [22]): 4 mm; zone of inhibition at 1000 µg/mL (Staphylococcus aureus [23]): 3 mm; zone of inhibition at 500 µg/mL (Escherichia coli [24]): 13 mm; zone of inhibition at 750 µg/mL (Escherichia coli [25]): 13 mm; zone of inhibition at 1000 µg/mL (Escherichia coli [26]): 14 mm
Nc1n[nH]c2c1C(c1c(-c3ccccc3)[nH]c3ccc(Cl)cc13)C=C(c1ccc(Cl)cc1)O2 (configuration not stated),Active,9 mm,9 mm,5 mm,9 mm,9 mm,8 mm,10 mm,10 mm,10 mm,10 mm,10 mm,11 mm,10 mm,9 mm,9 mm,13 mm,13 mm,13 mm,14 mm,Activity [27]: Active; zone of inhibition at 750 µg/mL (Staphylococcus aureus [22]): 14 mm; zone of inhibition at 1000 µg/mL (Staphylococcus aureus [23]): 14 mm; zone of inhibition at 500 µg/mL (Escherichia coli [24]): 13 mm; zone of inhibition at 750 µg/mL (Escherichia coli [25]): 13 mm; zone of inhibition at 1000 µg/mL (Escherichia coli [26]): 14 mm

# — ChEMBL document CHEMBL2346657, “Synthesis of novel 2-amino-4-(5'-substituted 2'-phenyl-1H-indol-3'-yl)-6-aryl-4H-pyran-3-carbonitrile derivatives as antimicrobial and antioxidant agents” (2013)
